Measurements published in patent US4800194A, “Acylphosphorotriamides useful as lipid-altering agents” (priority 1986, dated 1989).

Columns and labels:
pseudocholinesterase = molecular target: T1, pseudocholinesterase (Homo sapiens, UniProt P06276); test: Inhibition of human plasma pseudocholinesterase (PChE) activity (Test Method 1); assay type: biochemical; conditions: 30 min preincubation
T1 construct: a 100 μl aliquot of human plasma; from tissue; host or cells: human plasma (EDTA blood, stored frozen)
T1 sequence (P06276 29-602): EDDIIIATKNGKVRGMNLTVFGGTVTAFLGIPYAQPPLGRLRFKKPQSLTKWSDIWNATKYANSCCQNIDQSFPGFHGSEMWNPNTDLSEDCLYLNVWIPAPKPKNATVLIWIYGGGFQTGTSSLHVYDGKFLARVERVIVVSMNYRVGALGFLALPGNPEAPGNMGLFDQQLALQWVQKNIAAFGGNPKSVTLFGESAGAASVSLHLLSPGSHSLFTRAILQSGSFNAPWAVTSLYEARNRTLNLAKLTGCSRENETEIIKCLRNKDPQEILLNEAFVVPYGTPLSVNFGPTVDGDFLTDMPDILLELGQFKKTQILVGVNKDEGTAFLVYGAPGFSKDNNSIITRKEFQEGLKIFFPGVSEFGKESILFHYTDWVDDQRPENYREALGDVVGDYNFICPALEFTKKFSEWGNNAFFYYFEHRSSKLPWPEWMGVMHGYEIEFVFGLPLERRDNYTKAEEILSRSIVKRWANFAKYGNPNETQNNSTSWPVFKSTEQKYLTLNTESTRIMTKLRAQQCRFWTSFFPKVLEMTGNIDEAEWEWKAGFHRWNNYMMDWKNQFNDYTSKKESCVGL
Method: The following method was used to determine the relative inhibition of pseudocholinesterase and acetylcholinesterase by compounds of the present invention.
Plasma (Source of Pseudocholinesterase Enzyme)
Human Plasma was obtained from blood which was collected in ethylenediaminetetraacetic acid (EDTA) treated tubes. Collected plasma was stored frozen at -20° C. until use.
The buffer/chromogen solution was 0.25 mM 5,5'-dithiobis-[2-nitrobenzoic acid] (chromogen), 50 mM phosphate buffer, pH 7.2. In making up the buffer/chromogen solution and to keep it as colorless as possible, the phosphate buffer was first adjusted to pH 7.1 with NaOH; the chromogen was then added and dissolved; the pH was adjusted to 7.2; and the final volume was adjusted with addition of Milli-Q water. 5,5'-dithiobis-(2-nitrobenzoic acid) was obtained from Sigma Chemicals, St. Louis, MO.
The substrate solution for the pseudocholinesterase assay was 156 mM S-butyrylthiocholine iodide, and the substrate solution for the acetylcholinesterase assay was 156 mM S-acetylthiocholine iodide. Both substrate compounds were obtained from Sigma Chemicals.
Test Compound Stock Solutions
Solutions of all test compounds were made up at 2 μM, 20 μM, and 200 μM concentrations (in 0.9% saline solution) except as noted where lower concentrations were necessary because of decreased solubility of the compound in saline solution.
Pseudocholinesterase (PChE) Assay
In three separate tubes, a 100 μl aliquot of either 0.9% saline solution, 2 μM test compound solution, or 20 μM test compound solution was mixed with a 100 μl aliquot of human plasma, and the tubes were placed in a 35° C. water bath. Four cuvettes, each containing 3 ml buffer/chromogen solution mixed with 100 μl substrate solution (156 mM S-butyrylthiocholine iodide), had been placed in a heated cuvette holder (35° C.) in a Beckman DU-8B Spectrophotometer (Beckman Instruments). After the temperature of the buffer/chromogen/substrate solution in the cuvette had equilibrated for about 10 minutes, and after 0 or 30 minutes incubation of the plasma/test compound solution, a 25 μl aliquot of the plasma/test compound solutions was added to the corresponding cuvettes numbered 2-4. Cuvette #1 remained a blank. After mixing, the net absorbance of each cuvette was determined at 405 nm every 35 seconds for ten readings. From a plot of net absorbance versus time, the initial linear portion of the curve was determined, and a rate of absorbance change per minute was calculated. The positive control (100% PChE activity) was the plasma/saline solution.
Each compound was tested for its ability to inhibit plasma pseudocholinesterase activity and acetylcholinesterase activity. Because of variation in the time points in the linear portion of the curve, inhibition values below 10-15% and higher than 85-90% are nearly indistinguishable from 0% and 100%, respectively.

[1] = system: Hyperlipidemic Guinea Pigs; test: Multiple dose study in hyperlipidemic guinea pigs: plasma LDL/HDL ratio by lipoprotein electrophoresis (Test Method 2, Example 29); assay type: in vivo, guinea pig; conditions: 2.5 mg/kg i.p. once daily
Excerpt: Male Hartley guinea pigs (Elm Hill Breeding Labs., Chelmsford, MA or Charles River, Wilmington, MA) was used in all experiments unless otherwise specified. The animals were maintained on a normal diet of rabbit pellets (Purina Rabbit Chow 5321, Ralston Purina, St. Louis, MO) and water containing 0.1% ascorbic acid ad libitum. For special studies in the hyperlipidemic guinea pig model, the animals were maintained on the high cholesterol diet described in this report and water containing 0.1% ascorbic acid ad libitum.
Individual animals were identified by ear and cage markings. The dose of drug or placebo was adjusted daily for changes in the weight of the guinea pigs. Blood samples were collected in EDTA Vacutainers by open chest cardiac puncture under carbon dioxide anesthesia from guinea pigs which had been fasted overnight. The animals were then sacrificed by CO2 inhalation. Blood samples were centrifuged at 2000 rpm for 15 min. in an IEC centrifuge (International Equipment Co., Boston, MA) with a 240 rotor for isolation of plasma. Lipoprotein analyses of plasma were carried out on the same day as the blood collection. Assays of pseudocholinesterase activity were carried out within a week of blood collection on plasma samples which had been stored at 4° C.
Freshly prepared samples of EDTA plasma were analyzed for lipoproteins with the Redi-Disc Lipoprotein Electrophoresis Kit (Miles Laboratories, Elkhart, IN) by the procedure recommended in the package insert supplied in the kit.
Redi-Disc Lipoprotein Gel Tubes, polyacrylamide 3%, buffer, preservative.
Redi-Disc Lipoprotein Loading Gel, acrylamide 2.5 g/dl., N,N'-methylenebisacrylamide 0.6 g/dl, sudan black B 13 mg/dl, catalyst, stabilizer, buffer.
Redi-Disc Lipoprotein Buffer, Trishydroxymethylaminomethane 27% w/w, boric acid 73% w/w, pH of solution 7.4-7.9 (11 g diluted to 1200 ml with water).
The gel tubes were removed from the storage buffer and shaken to remove excess buffer. A 25 μl aliquot of plasma was added to each tube and mixed with 200 μl of loading gel. The loading gel was photopolymerized for 30-40 min. under a fluorescent light. The gel tubes were placed in the electrophoresis apparatus (Buchler Instruments, Fort Lee, NJ) and Redi-Disc Liproprotein Buffer was then added to the upper and lower chambers of the apparatus. The current was adjusted to 5 mA per gel tube. Electrophoresis was stopped when the HDL band was about 4-5 mm from the bottom of the gel tube.
The gels were stored in water for at least 30 min. following electrophoresis to allow the lipoprotein zones to spread. The gels were scanned at 615 nm in either a Beckman Acta C111 spectrophotometer or a Beckman DU-8B spectrophotometer. The areas of the lipoprotein peaks (VLDL, LDL, and HDL) were determined by gravimetric analysis (cut and weighed) on the Acta C111 or by electronic integration on the DU-8B.
A 1:15 mixture of cholesterol:corn oil was prepared by adding 25 g of USP cholesterol (Sigma Chemical Company, St. Louis, MO) to 375 g of corn oil (Mazola, Best Foods, CPC International, Inc., Englewood Cliffs, NJ). The mixture was stirred, sonicated, and heated in a hot water bath until the cholesterol completely dissolved. It was necessary to keep the mixture warm (50°-60° C.) in order to prevent congealing.
Batches of feed were prepared by adding 160 g of the cholesterol-corn oil solution to 840 g of Purina Rabbit Chow 5321. The pellets and lipid mixture were thoroughly mixed in a 2-liter or 3-liter Erlenmeyer flask to ensure uniform coating of the pellets. The feed was then stored at room temperature until needed.
Two groups of male Hartley Guinea pigs were maintained on the high cholesterol diet described above and water containing 0.1% ascorbic acid ad libitum. One group was treated once daily with a freshly prepared solution of test compound 4, N-(diaminophosphinyl)-4-fluorobenzamide, (1.0 mg/ml in 0.9% saline solution) at 2.5 mg/kg by intraperitoneal injection for 14 days. […]

NP(N)(=O)NC(=O)c1ccc(F)cc1 [Test Compound 4, N-(diaminophosphinyl)-4-fluorobenzamide]
inhibition at 1 µM (pseudocholinesterase; 1 μM): 92.8% | inhibition at 10 µM (pseudocholinesterase; 10 μM): 99.1% | LDL/HDL ratio vs saline-treated control ([1]; 14th day of treatment, result in words): significantly lower (p<0.05) | LDL/HDL ([1]; day 1, control 2.45): 1.91 | LDL/HDL ([1]; day 3, control 2.28): 2.43 | LDL/HDL ([1]; day 7, control 4.25): 4.08 | LDL/HDL ([1]; day 10, control 3.23): 2.75 | LDL/HDL ([1]; day 14, control 2.60, significantly different from control (p < 0.05)): 1.50
